Measured values: patent US20210139454A1, “FORMAMIDE COMPOUND, PREPARATION METHOD THEREFOR AND APPLICATION THEREOF” (SHENZHEN CHIPSCREEN BIOSCIENCES CO., LTD., priority 2018, published 2021)

These molecules were tested against T1, recombinant human ASK1 (Homo sapiens, UniProt Q99683) (assay: ASK1 enzymatic inhibition in vitro by HTRF). Details: HTRF method, single concentration 100 nM.
T1 construct: purchased Invitrogen PR7349B
T1 sequence (Q99683 1-1374): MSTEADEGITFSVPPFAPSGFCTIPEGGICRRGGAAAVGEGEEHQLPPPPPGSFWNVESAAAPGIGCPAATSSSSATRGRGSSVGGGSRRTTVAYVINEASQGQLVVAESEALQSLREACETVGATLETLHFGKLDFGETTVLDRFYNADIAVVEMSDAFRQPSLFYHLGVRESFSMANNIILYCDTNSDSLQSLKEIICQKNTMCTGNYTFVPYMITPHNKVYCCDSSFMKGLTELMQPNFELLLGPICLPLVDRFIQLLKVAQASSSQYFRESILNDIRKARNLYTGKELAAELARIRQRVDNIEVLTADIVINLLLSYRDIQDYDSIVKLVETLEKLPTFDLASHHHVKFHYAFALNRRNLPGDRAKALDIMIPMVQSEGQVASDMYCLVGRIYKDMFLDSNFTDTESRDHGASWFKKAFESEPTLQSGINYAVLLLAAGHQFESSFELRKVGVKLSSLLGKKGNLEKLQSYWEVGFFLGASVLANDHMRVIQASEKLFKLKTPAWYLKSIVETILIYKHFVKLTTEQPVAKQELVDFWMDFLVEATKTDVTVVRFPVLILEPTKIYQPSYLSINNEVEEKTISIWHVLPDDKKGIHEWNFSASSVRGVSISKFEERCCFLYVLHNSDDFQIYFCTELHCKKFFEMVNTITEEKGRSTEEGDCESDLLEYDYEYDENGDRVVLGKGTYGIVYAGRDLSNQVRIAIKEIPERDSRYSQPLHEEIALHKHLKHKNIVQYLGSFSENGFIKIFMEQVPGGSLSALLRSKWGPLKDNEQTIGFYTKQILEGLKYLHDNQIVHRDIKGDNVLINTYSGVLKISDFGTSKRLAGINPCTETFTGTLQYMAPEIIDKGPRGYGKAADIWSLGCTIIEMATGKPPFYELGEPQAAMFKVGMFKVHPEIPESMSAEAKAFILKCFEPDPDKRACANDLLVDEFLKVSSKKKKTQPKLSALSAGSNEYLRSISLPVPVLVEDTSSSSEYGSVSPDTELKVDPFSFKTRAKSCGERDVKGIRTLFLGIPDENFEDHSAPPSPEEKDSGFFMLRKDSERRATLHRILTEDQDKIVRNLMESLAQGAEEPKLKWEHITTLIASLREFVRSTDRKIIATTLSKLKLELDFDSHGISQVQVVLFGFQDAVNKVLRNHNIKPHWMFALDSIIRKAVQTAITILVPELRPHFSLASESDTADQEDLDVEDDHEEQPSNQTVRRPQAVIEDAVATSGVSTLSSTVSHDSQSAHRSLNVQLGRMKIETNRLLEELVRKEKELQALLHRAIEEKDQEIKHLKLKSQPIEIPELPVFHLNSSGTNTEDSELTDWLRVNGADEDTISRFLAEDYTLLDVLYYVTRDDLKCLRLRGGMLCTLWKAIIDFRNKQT
Assay type: biochemical
Text: In this detection, homogeneous time resolved fluorescence (HTRF) was used to evaluate the inhibitory level of the compound on the enzyme activity of recombinant human ASK1 in an in vitro reaction system.
The basic principle of the detection of enzymatic activity in vitro: a specific substrate labeled with biotin at the end is phosphorylated under the action of a kinase, and the reaction product is mixed with the EU3+-Cryptate-labeled antibody that recognizes the phosphorylation site and XL665-labeled streptavidin. When the two fluorescent molecules are bound to the substrate at the same time, Eu will produce […] fluorescence under the stimulation of external excitation light (320 nm), and meanwhile, XL665 will be excited by energy transfer to produce 665 nm fluorescence. The phosphorylation of the substrate is evaluated by comparing the changes of fluorescence at two wavelengths (620 nm and 665 nm). […] The basic detection principle is known in the prior art (Cisbio, Nature Method 2006, June 23; DOI:10.1038/NMETH883).
Human recombinant ASK1 (MAP3K5) kinase, 2× kinase reaction buffer, and ATP (10 mM) were purchased from Invitrogen (Cat. No.: PR7349B), and HTRF detection kit, HTRF KinEASE STK discovery kit, was purchased from Cisbio (Cat. No.: 62ST0PEB).
The experimental process was carried out in accordance with the procedures required by the detection reagent manual (https://www.cisbio.com/sites/default/files/ressources/cisbio_ddpi_62ST0PEB.pdf). The details are as follows:
(1) Experimental preparation: the kinase reaction buffer (working solution) is prepared as required and used to dilute the test compound into different concentration gradients (the maximum concentration of the compound is 4 μM).
(2) 10 μL of the enzymatic reaction system (including 2.5 μL of test compound, 5 μL of kinase reaction buffer and 2.5 μL of ATP solution (provided in the kit)) is mixed well and reacted at room temperature for 1 h. The enzymatic reaction is carried out in a 96-well microplate.
(3) EU3+-Cryptate-labeled antibody and XL665-labeled streptavidin are diluted with reaction termination buffer in an appropriate ratio, and 5 μL of each of two diluted detection solutions is added to each reaction well and reacted at room temperature for 2 h.
(4) The reaction is set up with a control reaction at the same time, including a positive control without test compound and a negative control without ASK1 kinase. All detections are carried out in duplicate.
(5) After the reaction, a fluorescence detector (TecanSPARK 10M) is used to detect the fluorescence signal of each well, wherein, the excitation wavelength is 320 nm, and the detected emission wavelengths are 620 nm and 665 nm, respectively.
(6) The 665/620 ratio of each well is calculated respectively, and the 665/620 ratio of the negative control well is subtracted from that of the positive control well to get the basic level of phosphorylation of the substrate. The formula for calculating the enzymatic inhibition rate of the test compound: inhibition rate (%)=1-(ratio of detection wells-ratio of negative wells)/basic level of phosphorylation of the substrate. The phosphorylation inhibition rates are calculated for the test compounds with different concentration gradients, and then the 50% enzymatic inhibiting concentration (IC50) is calculated by using the IC50 calculator. The summary data of the representative compounds of the present invention are as follows (see Table 2).

| SMILES | Inhibition Rate % [%] |
| --- | --- |
| Cc1cc(F)c(C(=O)Nc2cccc(-c3nncn3[C@@H](C)C(F)(F)F)n2)cc1NC(=O)C1CCCC1 [Compound I-19, (S)-5-(cyclopentylformamido)-2-fluoro-4-methyl-N-(6-(4-(1,1,1-trifluoropropyl-2-yl)-4H-1,2,4-triazol-3-yl)pyridin-2-yl)benzamide] | 52 |
| C[C@H](n1cnnc1-c1cccc(NC(=O)c2cc(NC(=O)C3CC3)ccn2)n1)C(F)(F)F [Compound I-10, (S)-4-(cyclopropylformamido)-N-(6-(4-(1,1,1-trifluoropropyl-2-yl)-4H-1,2,4-triazol-3-yl)pyridin-2-yl)pyridin-2-formamide] | 44 |
| Cc1cc(F)c(C(=O)Nc2cccc(-c3nncn3C(C)C)n2)cc1NC(=O)C1CC1c1ccc(F)cc1 (stereo not drawn) [Compound I-13, 2-fluoro-5-(2-(4-fluorophenyl)cyclopropyl-1-formamido)-N-(6-(4-isopropyl-4H-1,2,4-triazol-3-yl)pyridin-2-yl)-4-methylbenzamide] | 18 |
| Cc1cc(F)c(C(=O)Nc2cccc(-c3nncn3[C@@H](C)C(F)(F)F)n2)cc1NC(=O)C1CC1 [Compound I-3, (5)-5-(cyclopropylformamido)-2-fluoro-4-methyl-N-(6-(4-(1,1,1-trifluoropropyl-2-yl)-4H-1,2,4-triazol-3-yl)pyridin-2-yl)benzamide] | 51 |
| Cc1cc(F)c(C(=O)Nc2csc(-c3nncn3[C@@H](C)C(F)(F)F)n2)cc1NC(=O)C1CC1 [Compound I-8] | 24 |
| Cc1cc(F)c(C(=O)Nc2cccc(-c3nncn3C(C)C)n2)cc1NC(=O)[C@H]1C[C@@H]1F [Compound I-18, 2-fluoro-5-((1R,2S)-2-fluorocyclopropyl-1-formamido)-N-(6-(4-isopropyl-4H-1,2,4-triazol-3-yl)pyridin-2-yl)-4-methylbenzamide] | 34 |
| Cc1cc(F)c(C(=O)Nc2cccc(-c3nncn3[C@@H](C)C(F)(F)F)n2)cc1NC(=O)C1CCCCCC1 [Compound I-20, (S)-5-(cycloheptylformamido)-2-fluoro-4-methyl-N-(6-(4-(1,1,1-trifluoropropyl-2-yl)-4H-1,2,4-triazol-3-yl)pyridin-2-yl)benzamide] | 16 |
| Cc1cc(F)c(C(=O)Nc2cccc(-c3nncn3C(C)C)n2)cc1NC(=O)C1(F)CC1 [Compound I-16, 2-fluoro-N-(6-(4-isopropyl-4H-1,2,4-triazol-3-yl)pyridin-2-yl)-4-methyl-5-(1-(fluoro)cyclopropyl-1-formamido)benzamide] | 21 |
| C[C@H](n1cnnc1-c1cccc(NC(=O)c2cc(NC(=O)C3CC3)c(Cl)cc2F)n1)C(F)(F)F [Compound I-9, (S)-4-chloro-5-(cyclopropylformamido)-2-fluoro-N-(6-(4-(1,1,1-trifluoropropyl-2-yl)-4H-1,2,4-triazol-3-yl)pyridin-2-yl)benzamide] | 33 |
| Cc1cc(F)c(C(=O)Nc2cccc(-c3nncn3C(C)C)n2)cc1NC(=O)[C@H]1C[C@H]1F [Compound I-17, 2-fluoro-5-((1R,2R)-2-fluorocyclopropyl-1-formamido)-N-(6-(4-isopropyl-4H-1,2,4-triazol-3-yl)pyridin-2-yl)-4-methylbenzamide] | 15 |
| C[C@H](n1cnnc1-c1cccc(NC(=O)c2cc(NC(=O)C3CC3)c(F)cn2)n1)C(F)(F)F [Compound I-11, (S)-4-(cyclopropylformamido)-5-fluoro-N-(6-(4-(1,1,1-trifluoropropyl-2-yl)-4H-1,2,4-triazol-3-yl)pyridin-2-yl)pyridin-2-formamide] | 27 |
| COC[C@@H](C)n1cnnc1-c1cccc(NC(=O)c2cc(NC(=O)C3CC3)c(C)cc2F)n1 [Compound I-6] | 13 |

Same assay, conditions: HTRF method, single concentration 100 nM; read-out: Inhibition Rate %

| SMILES | inhibition at 0.1 µM [%] |
| --- | --- |
| Cc1cc(F)c(C(=O)Nc2cccc(-c3nncn3C(C)C)n2)cc1NC(=O)C1CC1 [Compound I-1, 5-(cyclopropylformamido)-2-fluoro-4-methyl-N-(6-(4-isopropyl-4H-1,2,4-triazol-3-yl)pyridin-2-yl)benzamide] | 54 |
| Cc1cc(F)c(C(=O)Nc2cccc(-c3nncn3C(C)C)n2)cc1NC(=O)C1CCC1 [Compound I-14, 5-(cyclobutylformamido)-2-fluoro-N-(6-(4-isopropyl-4H-1,2,4-triazol-3-yl)pyridin-2-yl)-4-methylbenzamide] | 42 |
| Cc1cc(F)c(C(=O)Nc2cccc(-c3nncn3CC(F)(F)F)n2)cc1NC(=O)C1CC1 [Compound I-4, 5-(cyclopropylformamido)-2-fluoro-4-methyl-N-(6-(4-(2,2,2-trifluoroethyl)-4H-1,2,4-triazol-3-yl)pyridin-2-yl)benzamide] | 32 |
